Like-named read-outs stand apart in the source and are kept apart here.
Columns and labels:
[1] = tested on: Mycosphaerella graminicola; anamorph: Septoria tritici (SEPTTR); experiment: Leaf blotch of wheat (SEPTTR) whole-plant fungicidal test; format: in vivo; settings: Zymoseptoria tritici, topical, low volume (track spray) application, 121.5 g/H
Procedure: (§1) All fungicides were evaluated using the aforementioned method for their activity vs. all target diseases, unless stated otherwise. Wheat leaf blotch and brown rust activity were also evaluated using track spray applications, in which case the fungicides were formulated as EC formulations, containing 0.1% Trycol 5941 in the spray solutions. Wheat plants (variety Yuma) were grown from seed in a greenhouse in 50% mineral soil/50% soil-less Metro mix until the first leaf was fully emerged, with 7-10 seedlings per pot. These plants were inoculated with an aqueous spore suspension of Septoria tritici either prior to or after fungicide treatments. After inoculation the plants were kept in 100% relative humidity (one day in a dark dew chamber followed by two to three days in a lighted dew chamber at 20° C.) to permit spores to germinate and infect the leaf. The plants were then transferred to a greenhouse set at 20° C. for disease to develop. When disease symptoms were fully expressed on the 1st leaves of untreated plants, infection levels were assessed on a scale of 0 to 100 percent disease severity. Percent disease control was calculated using the ratio of disease severity on treated plants relative to untreated plants.

[2] = tested on: Puccinia triticina; synonym: Puccinia recondita f. sp. tritici (PUCCRT); experiment: Wheat brown rust (PUCCRT) whole-plant fungicidal test; format: in vivo; settings: topical, low volume (track spray) application, 121.5 g/H
Procedure: as §1, with “plants. Wheat plants (variety Yuma) were grown from seed in a greenhouse in 50% mineral soil/50% soil-less Metro mix until the first leaf was fully emerged, with 7-10 seedlings per pot. These plants were inoculated with an aqueous spore suspension of Puccinia triticina either prior to or after fungicide treatments. […] The plants were then transferred to a greenhouse set at 24° C. for disease to develop. Fungicide formulation, application and disease assessment followed the procedures as described in the Example A.” for “plants.”

[3] = 24 h, 1 Day Protectant, read-out: Low Volume activity at 121.5 g/H SEPTTR 1DP (% disease control rating)
[4] = 72 h, 3 Day Curative, read-out: Low Volume activity at 121.5 g/H SEPTTR 3DC (% disease control rating)
[5] = 24 h, 1 Day Protectant, read-out: Low Volume activity at 121.5 g/H PUCCRT 1DP (% disease control rating)
[6] = 72 h, 3 Day Curative, read-out: Low Volume activity at 121.5 g/H PUCCRT 3DC (% disease control rating)

Row | SMILES | pest or weed control at 121.5 g/ha [1, 3] | pest or weed control at 121.5 g/ha [1, 4] | pest or weed control at 121.5 g/ha [2, 5] | pest or weed control at 121.5 g/ha [2, 6]
1 | COc1ccnc(C(=O)N[C@H]2CCC[C@H](Cc3ccc(C(F)(F)F)cc3)[C@@H](Cc3ccccc3)[C@H](C)OC2=O)c1OCOC(=O)C(C)C [Compound 27] | > 70% | < 70% | > 70% | < 70%
2 | COc1ccnc(C(=O)N[C@H]2CCC[C@H](Cc3ccc(Cl)cc3)[C@@H](C3CCCC3)[C@H](C)OC2=O)c1OC(C)=O [Compound 28] | > 70% | > 70% | > 70% | < 70%
3 | COc1ccnc(C(=O)N[C@H]2CCC[C@H](Cc3ccc(Cl)cc3)[C@@H](C3CCCC3)[C@H](C)OC2=O)c1OCOC(C)=O [Compound 29] | > 70% | > 70% | > 70% | < 70%
4 | COc1ccnc(C(=O)N[C@H]2CCC[C@H](Cc3ccc(Cl)cc3)[C@@H](C3CCCC3)[C@H](C)OC2=O)c1OCOC(=O)C(C)C [Compound 30] | > 70% | > 70% | < 70% | < 70%
5 | CCOCC(=O)OCOc1c(OC)ccnc1C(=O)N[C@H]1CCC[C@H](Cc2ccc(Cl)cc2)[C@@H](C2CCCC2)[C@H](C)OC1=O [Compound 31] | > 70% | > 70% | > 70% | < 70%
6 | COc1ccnc(C(=O)N[C@H]2CCC[C@H](CCCc3ccccc3)[C@@H](CCc3ccccc3)[C@H](C)OC2=O)c1OCOC(C)=O [Compound 32] | > 70% | < 70% | > 70% | < 70%
7 | COc1ccnc(C(=O)N[C@H]2CCC[C@H](CCCc3ccccc3)[C@@H](CCc3ccccc3)[C@H](C)OC2=O)c1OC(C)=O [Compound 33] | > 70% | < 70% | < 70% | < 70%
8 | COc1ccnc(C(=O)N[C@H]2CCC[C@H](CCC(C)C)[C@@H](CCc3ccccc3)[C@H](C)OC2=O)c1OCOC(C)=O [Compound 34] | > 70% | > 70% | > 70% | < 70%
9 | CCOCC(=O)OCOc1c(OC)ccnc1C(=O)N[C@H]1CCC[C@H](CCC(C)C)[C@@H](CCc2ccccc2)[C@H](C)OC1=O [Compound 35] | > 70% | > 70% | > 70% | < 70%
10 | COc1ccnc(C(=O)N[C@H]2CCC[C@H](CCC(C)C)[C@@H](CCc3ccccc3)[C@H](C)OC2=O)c1OC(C)=O [Compound 36] | > 70% | > 70% | > 70% | < 70%
11 | CCC[C@H]1CCC[C@H](NC(=O)c2nccc(OC)c2OCOC(C)=O)C(=O)O[C@@H](C)[C@@H]1Cc1ccccc1 [Compound 37] | > 70% | > 70% | > 70% | > 70%
12 | CCC[C@H]1CCC[C@H](NC(=O)c2nccc(OC)c2OC(C)=O)C(=O)O[C@@H](C)[C@@H]1Cc1ccccc1 [Compound 38] | > 70% | > 70% | > 70% | > 70%
13 | COc1ccnc(C(=O)N[C@H]2CCC[C@H](Cc3ccc(C(F)(F)F)cc3)[C@@H](Cc3ccc(F)cc3)[C@H](C)OC2=O)c1OCOC(C)=O [Compound 39] | > 70% | > 70% | < 70% | < 70%
14 | COc1ccnc(C(=O)N[C@H]2CCC[C@H](Cc3ccc(C(F)(F)F)cc3)[C@@H](Cc3ccc(F)cc3)[C@H](C)OC2=O)c1OC(C)=O [Compound 40] | > 70% | < 70% | < 70% | < 70%
15 | COc1ccnc(C(=O)N[C@H]2CCC[C@H](Cc3ccc(C(F)(F)F)cc3)[C@@H](Cc3ccc(F)cc3)[C@H](C)OC2=O)c1OCOC(=O)C(C)C [Compound 41] | < 70% | < 70% | < 70% | < 70%
16 | COc1ccnc(C(=O)N[C@H]2CCC[C@H](CCC(C)C)[C@@H](C3CCCC3)[C@H](C)OC2=O)c1OCOC(C)=O [Compound 42] | > 70% | > 70% | > 70% | < 70%
17 | COc1ccnc(C(=O)N[C@H]2CCC[C@H](CCC(C)C)[C@@H](C3CCCC3)[C@H](C)OC2=O)c1OC(C)=O [Compound 43] | > 70% | > 70% | > 70% | < 70%
18 | COc1ccnc(C(=O)N[C@H]2CCC[C@H](CCC(C)C)[C@@H](C3CCCC3)[C@H](C)OC2=O)c1OCOC(=O)C(C)C [Compound 44] | > 70% | > 70% | > 70% | < 70%
19 | COc1ccnc(C(=O)N[C@H]2CCC[C@H](Cc3ccccc3)[C@@H](CCC(C)C)[C@H](C)OC2=O)c1OC(C)=O [Compound 45] | > 70% | > 70% | > 70% | < 70%
20 | CCC[C@H]1CCC[C@H](NC(=O)c2nccc(OC)c2OC(C)=O)C(=O)O[C@@H](C)[C@@H]1Cc1ccc(F)cc1 [Compound 46] | > 70% | > 70% | > 70% | > 70%
21 | COc1ccnc(C(=O)N[C@H]2CCC[C@H](Cc3ccccc3)[C@@H](CCC(C)C)[C@H](C)OC2=O)c1OCOC(C)=O [Compound 47] | > 70% | > 70% | > 70% | < 70%
22 | CCC[C@H]1CCC[C@H](NC(=O)c2nccc(OC)c2OCOC(C)=O)C(=O)O[C@@H](C)[C@@H]1Cc1ccc(F)cc1 [Compound 48] | > 70% | > 70% | > 70% | > 70%
23 | COc1ccnc(C(=O)N[C@H]2CCC[C@H](Cc3ccccc3)[C@@H](CCC(C)C)[C@H](C)OC2=O)c1OC(=O)C(C)C [Compound 49] | > 70% | > 70% | < 70% | < 70%
24 | COc1ccnc(C(=O)N[C@H]2CCC[C@H](Cc3ccccc3)[C@@H](CCC(C)C)[C@H](C)OC2=O)c1OCOC(=O)C(C)C [Compound 50] | > 70% | > 70% | > 70% | < 70%
25 | CCOCC(=O)OCOc1c(OC)ccnc1C(=O)N[C@H]1CCC[C@H](Cc2ccccc2)[C@@H](CCC(C)C)[C@H](C)OC1=O [Compound 51] | > 70% | > 70% | > 70% | < 70%
26 | COc1ccnc(C(=O)N[C@H]2CCC[C@H](Cc3ccccc3)[C@@H](c3ccccc3)[C@H](C)OC2=O)c1OCOC(C)=O [Compound 52] | > 70% | > 70% | > 70% | < 70%
27 | COc1ccnc(C(=O)N[C@H]2CCC[C@H](Cc3ccccc3)[C@@H](c3ccccc3)[C@H](C)OC2=O)c1OC(C)=O [Compound 53] | > 70% | > 70% | > 70% | < 70%
